In US20190328712A1 (Treeway TW001 B.V., priority 2017, published 2019):

What was measured:
[1] = Rate of dissolution of edaravone in water; format: physicochemical; settings: in the presence of an alkalizing agent
[2] = Single 60 mg dose of Radicut edaravone solution, oral and i.v. infusion, plasma pharmacokinetics in dogs; format: in vivo; settings: male, beagle, dog; for concentration at […]: 0.25 hrs
[3] = ALS patients, Week 24; cited from earlier work
[4] = rats, oral, 'raw' edaravone suspended with 0.5% CMC-Na, vs 100% intravenous; cited from earlier work
[5] = Single 60 mg dose of Radicut edaravone solution, oral and i.v. infusion, plasma pharmacokinetics in dogs; format: in vivo; settings: male, beagle, dog, iv, i.v. infusion 60 mg (15 min)
Protocol: The study was conducted in a group of 4 male beagle dogs. […] After a wash-out period of 2 days, the animals received an intravenous infusion of two Radicut® ampoules (15 minutes infusion time).

[6] = Single dose, randomized, two-period cross-over study, oral solution 140 mg vs i.v. 60 mg, plasma pharmacokinetics; format: in vivo; settings: human
Protocol: A single dose, randomized, two-period, cross-over study was conducted in 18 healthy male and female human subjects.

[7] = iv, i.v. infusion 60 mg (15 min)
[8] = both sexes, plasma, iv, i.v. infusion 60 mg (60 minutes)
[9] = both sexes, plasma, iv, i.v. infusion (60 mg, 60 minutes)
[10] = both sexes, plasma, oral administration 140 mg
[11] = both sexes, plasma, oral administration (140 mg)

**Q.** Which “rate at which edaravone dissolves in water” value [1] does the source give for `CC1=NN(c2ccccc2)C(=O)C1` [edaravone, 3-methyl-1-phenyl-2-pyrazolin-5-one] here?
**A.** increased substantially

**Q.** And the bioavailability ([2]; oral 60 mg compared to iv infusion, read-out: systemic bioavailability (Fabs))?
**A.** 34%

**Q.** And the AUC(0-inf) ([2]; oral administration 60 mg)?
**A.** 553 ng·h/mL

**Q.** And the AUC(0-t) ([2]; oral administration 60 mg)?
**A.** 542 ng·h/mL

**Q.** What about the Cmax ([2]; oral administration 60 mg) of the same compound?
**A.** 2310 ng/mL

**Q.** What about the concentration at 0.083 h ([2]; oral administration 60 mg, 0.083 hrs) of the same compound?
**A.** 2310 ng/mL

**Q.** And the concentration at 0.17 h ([2]; oral administration 60 mg, 0.17 hrs)?
**A.** 994 ng/mL

**Q.** And the concentration at […] ([2]; oral administration 60 mg)?
**A.** 491 ng/mL

**Q.** What about the concentration at 0.5 h ([2]; oral administration 60 mg, 0.5 hrs) of the same compound?
**A.** 185 ng/mL

**Q.** What about the concentration at 1 h ([2]; oral administration 60 mg, 1 hrs) of the same compound?
**A.** 84 ng/mL

**Q.** And the concentration at 1.5 h ([2]; oral administration 60 mg, 1.5 hrs)?
**A.** 51 ng/mL

**Q.** What about the concentration at 2 h ([2]; oral administration 60 mg, 2 hrs) of the same compound?
**A.** 36 ng/mL

**Q.** And the concentration at 4 h ([2]; oral administration 60 mg, 4 hrs)?
**A.** 11 ng/mL

**Q.** What about the concentration at 6 h ([2]; oral administration 60 mg, 6 hrs) of the same compound?
**A.** 5 ng/mL

**Q.** And the Tmax ([2]; po, 60 mg, oral administration 60 mg)?
**A.** ~5 min

**Q.** What about the AUC(0-inf) [2, 7] of the same compound?
**A.** 1630 ng·h/mL

**Q.** What about the AUC(0-t) [2, 7] of the same compound?
**A.** 1600 ng·h/mL

**Q.** What about the Cmax [2, 7] of the same compound?
**A.** 4380 ng/mL

**Q.** What about the concentration at […] [2, 7] of the same compound?
**A.** 4380 ng/mL

**Q.** What about the concentration at 10 h ([2]; iv, i.v. infusion 60 mg (15 min), 10 hrs) of the same compound?
**A.** 5 ng/mL

**Q.** What about the “decline on a clinical assessment of daily functioning compared to placebo” value [3] of the same compound?
**A.** declined less

**Q.** And the “absolute bioavailability (Fabs)” value [4]?
**A.** 5.23%

**Q.** What about the Tmax ([5]; 60 mg) of the same compound?
**A.** 15 min

**Q.** What about the concentration at 0.083 h ([5]; 0.083 hrs) of the same compound?
**A.** 3060 ng/mL

**Q.** And the concentration at 0.5 h ([5]; 0.5 hrs)?
**A.** 648 ng/mL

**Q.** And the concentration at 1 h ([5]; 1 hrs)?
**A.** 140 ng/mL

**Q.** And the concentration at 2 h ([5]; 2 hrs)?
**A.** 49 ng/mL

**Q.** And the concentration at 4 h ([5]; 4 hrs)?
**A.** 17 ng/mL

**Q.** What about the concentration at 8 h ([5]; 8 hrs) of the same compound?
**A.** 6 ng/mL

**Q.** And the bioavailability ([6]; both sexes, plasma, oral, 140 mg, oral aqueous solution 140 mg compared to i.v. infusion 60 mg, read-out: systemic / absolute bioavailability (Fabs))?
**A.** ~80%

**Q.** What about the AUC(0-inf) [6, 8] of the same compound?
**A.** 1300 ng·h/mL

**Q.** What about the AUC(0-t) [6, 8] of the same compound?
**A.** 1290 ng·h/mL

**Q.** And the Cmax [6, 8]?
**A.** 1030 ng/mL

**Q.** What about the Tmax [6, 8] of the same compound?
**A.** 60 min

**Q.** And the concentration at 0.17 h [6, 9]?
**A.** 380 ng/mL

**Q.** What about the concentration at 0.5 h [6, 9] of the same compound?
**A.** 713 ng/mL

**Q.** And the concentration at 1 h [6, 9]?
**A.** 990 ng/mL

**Q.** What about the concentration at 1.5 h [6, 9] of the same compound?
**A.** 321 ng/mL

**Q.** What about the concentration at 4 h [6, 9] of the same compound?
**A.** 42 ng/mL

**Q.** What about the concentration at 6 h [6, 9] of the same compound?
**A.** 14 ng/mL

**Q.** What about the concentration at 8 h [6, 9] of the same compound?
**A.** 8 ng/mL

**Q.** What about the concentration at 10 h [6, 9] of the same compound?
**A.** 5 ng/mL

**Q.** What about the AUC(0-inf) [6, 10] of the same compound?
**A.** 2410 ng·h/mL

**Q.** What about the AUC(0-t) [6, 10] of the same compound?
**A.** 2390 ng·h/mL

**Q.** What about the Cmax [6, 10] of the same compound?
**A.** 2940 ng/mL

**Q.** And the concentration at 0.083 h ([6]; both sexes, plasma, oral administration (140 mg), 0.083 hrs)?
**A.** 1200 ng/mL

**Q.** What about the concentration at 0.17 h [6, 11] of the same compound?
**A.** 2360 ng/mL

**Q.** And the concentration at […] ([6]; both sexes, plasma, oral administration (140 mg), 0.25 hrs)?
**A.** 2630 ng/mL

**Q.** What about the concentration at 0.5 h [6, 11] of the same compound?
**A.** 1810 ng/mL

**Q.** And the concentration at 1 h [6, 11]?
**A.** 689 ng/mL

**Q.** And the concentration at 1.5 h [6, 11]?
**A.** 354 ng/mL

**Q.** And the concentration at 2 h ([6]; both sexes, plasma, oral administration (140 mg), 2 hrs)?
**A.** 203 ng/mL

**Q.** What about the concentration at 4 h [6, 11] of the same compound?
**A.** 68 ng/mL

**Q.** What about the concentration at 6 h [6, 11] of the same compound?
**A.** 24 ng/mL

**Q.** And the concentration at 8 h [6, 11]?
**A.** 13 ng/mL

**Q.** And the concentration at 10 h [6, 11]?
**A.** 9 ng/mL

**Q.** And the “time to peak maximum concentration after administration” value ([6]; oral administration 140 mg)?
**A.** about 15 min
